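Values below derive from 48-hour exposures of cells grown in 96-well plates, with endpoints linearly interpolated between the two concentrations bracketing the appropriate inhibition level. The concentration for full growth arrest is given as TGI.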
Assays:
Test in all cases: NCI tumour cell line growth inhibition, 48 h
786-0 renal = test system: 786-0 renal
A549 NSCLC = test system: A549 NSCLC
ACHN renal = test system: ACHN renal
BT-549 breast = test system: BT-549 breast
CAKI-1 renal = test system: CAKI-1 renal
CCRF-CEM leukemia = test system: CCRF-CEM leukemia
COLO 205 colon = test system: COLO 205 colon
DU-145 prostate = test system: DU-145 prostate
EKVX NSCLC = test system: EKVX NSCLC
HCC-2998 colon = test system: HCC-2998 colon
HCT-116 colon = test system: HCT-116 colon
HCT-15 colon = test system: HCT-15 colon
HL-60(TB) leukemia = test system: HL-60(TB) leukemia
HOP-62 NSCLC = test system: HOP-62 NSCLC
HOP-92 NSCLC = test system: HOP-92 NSCLC
HS 578T breast = test system: HS 578T breast
HT29 colon = test system: HT29 colon
IGROV1 ovarian = test system: IGROV1 ovarian
K-562 leukemia = test system: K-562 leukemia
KM12 colon = test system: KM12 colon
LOX IMVI melanoma = test system: LOX IMVI melanoma
M14 melanoma = test system: M14 melanoma
MALME-3M melanoma = test system: MALME-3M melanoma
MCF7 breast = test system: MCF7 breast
MDA-MB-231 breast = test system: MDA-MB-231 breast
MDA-MB-435 = test system: MDA-MB-435
MDA-N = test system: MDA-N
MOLT-4 leukemia = test system: MOLT-4 leukemia
NCI-H226 lung = test system: NCI-H226 lung
NCI-H23 lung = test system: NCI-H23 lung
NCI-H460 lung = test system: NCI-H460 lung
NCI-H522 lung = test system: NCI-H522 lung
NCI/ADR-RES ovarian = test system: NCI/ADR-RES ovarian
OVCAR-3 ovarian = test system: OVCAR-3 ovarian
OVCAR-4 ovarian = test system: OVCAR-4 ovarian
OVCAR-5 ovarian = test system: OVCAR-5 ovarian
OVCAR-8 ovarian = test system: OVCAR-8 ovarian
PC-3 prostate = test system: PC-3 prostate
RPMI-8226 leukemia = test system: RPMI-8226 leukemia
RXF 393 renal = test system: RXF 393 renal
SF-268 CNS = test system: SF-268 CNS
SF-295 CNS = test system: SF-295 CNS
SF-539 CNS = test system: SF-539 CNS
SK-MEL-2 melanoma = test system: SK-MEL-2 melanoma
SK-MEL-28 melanoma = test system: SK-MEL-28 melanoma
SK-MEL-5 melanoma = test system: SK-MEL-5 melanoma
SK-OV-3 ovarian = test system: SK-OV-3 ovarian
SN12C renal = test system: SN12C renal
SNB-19 CNS = test system: SNB-19 CNS
SNB-75 CNS = test system: SNB-75 CNS
SR leukemia = test system: SR leukemia
SW-620 colon = test system: SW-620 colon
T-47D breast = test system: T-47D breast
TK-10 renal = test system: TK-10 renal
U251 CNS = test system: U251 CNS
UACC-257 melanoma = test system: UACC-257 melanoma
UACC-62 melanoma = test system: UACC-62 melanoma
UO-31 renal = test system: UO-31 renal

Measured: TGI

O=C(O)c1ccccc1CC1Cc2ccccc2C1
> 100 µM: all assays above

Cc1ccc(/C=C2\N=C(N3CCOCC3)NC2=O)cc1
not listed: K-562 leukemia | NCI-H460 lung | SK-MEL-5 melanoma
> 100 µM: all other assays above

Source: PubChem BioAssay (NCI)
